Type in all cases: biochemical
Assay [1] has as its target LCK (Homo sapiens, UniProt P06239). As to the kind of experiment: Inhibition of a panel of kinases, in vitro HotSpot kinase assay: LCK. The settings on record: D-compounds panel data; 1 μM ATP; read-out: IC50 LCK.
Assay [2] has as its target T1, BTK-WT (Homo sapiens, UniProt Q06187).
T1 construct: purified from insect cells as a full-length construct containing an N-terminal 6X-His tag; His6 (N); made in house; host or cells: insect cells (baculovirus Sf21 in Method B)
The assay can be described thus: Btk in vitro inhibitory activity (one of Method A TR-FRET, Method B electrophoretic mobility shift, Method C radiometric filter binding). The conditions noted are these: D-compounds panel data; read-out: IC50 BTK-WT.

The target in assay [3] is SRC (Homo sapiens, UniProt P12931). The assay can be described thus: Inhibition of a panel of kinases, in vitro HotSpot kinase assay: SRC. The conditions noted are these: D-compounds panel data; 1 μM ATP. The protocol:
(§1) The degree of inhibition of a panel of kinases is determined using the in vitro HotSpot kinase assay (purified enzymes, ^33P-ATP, an appropriate substrate and 1 μM ATP).

The target in assay [4] is T2, ITK (Homo sapiens, UniProt Q08881).
T2 sequence (Q08881 1-620): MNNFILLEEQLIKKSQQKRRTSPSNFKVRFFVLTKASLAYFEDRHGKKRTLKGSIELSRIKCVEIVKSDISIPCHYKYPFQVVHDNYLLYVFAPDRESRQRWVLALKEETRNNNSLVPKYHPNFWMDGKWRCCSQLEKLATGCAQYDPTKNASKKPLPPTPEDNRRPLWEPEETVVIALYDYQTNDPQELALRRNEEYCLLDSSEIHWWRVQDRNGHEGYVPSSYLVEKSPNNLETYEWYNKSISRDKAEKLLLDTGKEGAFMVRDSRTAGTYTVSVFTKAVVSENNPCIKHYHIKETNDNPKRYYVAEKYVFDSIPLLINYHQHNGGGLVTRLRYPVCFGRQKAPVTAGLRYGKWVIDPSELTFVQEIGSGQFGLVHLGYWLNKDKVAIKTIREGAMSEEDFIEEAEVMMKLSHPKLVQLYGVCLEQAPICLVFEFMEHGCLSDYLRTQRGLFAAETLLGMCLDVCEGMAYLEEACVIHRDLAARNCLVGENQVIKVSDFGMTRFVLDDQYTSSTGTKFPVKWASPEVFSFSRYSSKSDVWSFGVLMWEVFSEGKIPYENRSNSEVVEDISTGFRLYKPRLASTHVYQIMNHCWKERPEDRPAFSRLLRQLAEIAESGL
As to the kind of experiment: Inhibition of a panel of kinases, in vitro HotSpot kinase assay: ITK. The settings on record: D-compounds panel data; 1 μM ATP. On the procedure: as §1

The target in assay [5] is EGFR (Homo sapiens, UniProt P00533). As to the kind of experiment: Inhibition of a panel of kinases, in vitro HotSpot kinase assay: EGFR. The settings on record: D-compounds panel data; 1 μM ATP. On the procedure: as §1
Chain of EGFR (P00533 25-1210): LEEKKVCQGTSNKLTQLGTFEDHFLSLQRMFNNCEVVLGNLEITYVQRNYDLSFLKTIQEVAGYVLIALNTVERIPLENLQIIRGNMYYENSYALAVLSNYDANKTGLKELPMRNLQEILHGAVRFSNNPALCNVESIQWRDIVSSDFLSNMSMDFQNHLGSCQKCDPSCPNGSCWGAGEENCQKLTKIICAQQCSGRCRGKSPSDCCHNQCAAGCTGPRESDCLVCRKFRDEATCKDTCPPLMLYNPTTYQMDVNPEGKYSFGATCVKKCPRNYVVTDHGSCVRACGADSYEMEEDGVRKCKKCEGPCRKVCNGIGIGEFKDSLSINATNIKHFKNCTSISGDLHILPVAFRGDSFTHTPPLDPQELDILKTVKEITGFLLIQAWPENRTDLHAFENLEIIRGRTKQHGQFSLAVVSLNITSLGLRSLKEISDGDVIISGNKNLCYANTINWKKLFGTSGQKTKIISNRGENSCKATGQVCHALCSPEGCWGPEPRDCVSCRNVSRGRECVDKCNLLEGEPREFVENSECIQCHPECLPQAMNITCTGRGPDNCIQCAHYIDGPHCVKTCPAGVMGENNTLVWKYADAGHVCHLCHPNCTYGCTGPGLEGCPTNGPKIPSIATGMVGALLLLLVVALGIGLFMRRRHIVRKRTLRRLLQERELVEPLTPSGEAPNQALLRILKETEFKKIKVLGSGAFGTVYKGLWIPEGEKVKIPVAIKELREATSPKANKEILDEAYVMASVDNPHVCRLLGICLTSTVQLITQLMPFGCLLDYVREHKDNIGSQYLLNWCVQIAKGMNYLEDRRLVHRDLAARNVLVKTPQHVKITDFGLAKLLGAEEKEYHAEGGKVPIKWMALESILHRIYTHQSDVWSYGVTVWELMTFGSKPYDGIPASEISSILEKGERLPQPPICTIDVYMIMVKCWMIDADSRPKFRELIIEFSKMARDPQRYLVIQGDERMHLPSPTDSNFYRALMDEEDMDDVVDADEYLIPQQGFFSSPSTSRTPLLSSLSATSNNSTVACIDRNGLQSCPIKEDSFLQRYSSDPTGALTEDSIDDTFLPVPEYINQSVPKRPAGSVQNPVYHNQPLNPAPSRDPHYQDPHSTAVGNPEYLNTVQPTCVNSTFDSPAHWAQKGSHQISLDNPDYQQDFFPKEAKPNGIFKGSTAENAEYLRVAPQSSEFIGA

Chain of LCK (P06239 whole entry): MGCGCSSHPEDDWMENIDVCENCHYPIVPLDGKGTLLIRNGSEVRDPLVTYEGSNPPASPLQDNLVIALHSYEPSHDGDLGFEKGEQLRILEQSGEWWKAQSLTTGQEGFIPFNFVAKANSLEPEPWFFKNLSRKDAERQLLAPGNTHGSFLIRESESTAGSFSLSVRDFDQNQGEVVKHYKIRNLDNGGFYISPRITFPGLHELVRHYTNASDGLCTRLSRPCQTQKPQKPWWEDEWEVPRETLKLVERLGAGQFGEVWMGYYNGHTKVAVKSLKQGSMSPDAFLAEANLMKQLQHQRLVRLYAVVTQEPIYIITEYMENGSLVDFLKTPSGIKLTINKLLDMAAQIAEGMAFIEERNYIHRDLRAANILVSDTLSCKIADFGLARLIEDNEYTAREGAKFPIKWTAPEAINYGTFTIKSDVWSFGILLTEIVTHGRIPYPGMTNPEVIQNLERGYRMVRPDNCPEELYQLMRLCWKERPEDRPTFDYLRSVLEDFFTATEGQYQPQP
T1 sequence (Q06187 whole entry): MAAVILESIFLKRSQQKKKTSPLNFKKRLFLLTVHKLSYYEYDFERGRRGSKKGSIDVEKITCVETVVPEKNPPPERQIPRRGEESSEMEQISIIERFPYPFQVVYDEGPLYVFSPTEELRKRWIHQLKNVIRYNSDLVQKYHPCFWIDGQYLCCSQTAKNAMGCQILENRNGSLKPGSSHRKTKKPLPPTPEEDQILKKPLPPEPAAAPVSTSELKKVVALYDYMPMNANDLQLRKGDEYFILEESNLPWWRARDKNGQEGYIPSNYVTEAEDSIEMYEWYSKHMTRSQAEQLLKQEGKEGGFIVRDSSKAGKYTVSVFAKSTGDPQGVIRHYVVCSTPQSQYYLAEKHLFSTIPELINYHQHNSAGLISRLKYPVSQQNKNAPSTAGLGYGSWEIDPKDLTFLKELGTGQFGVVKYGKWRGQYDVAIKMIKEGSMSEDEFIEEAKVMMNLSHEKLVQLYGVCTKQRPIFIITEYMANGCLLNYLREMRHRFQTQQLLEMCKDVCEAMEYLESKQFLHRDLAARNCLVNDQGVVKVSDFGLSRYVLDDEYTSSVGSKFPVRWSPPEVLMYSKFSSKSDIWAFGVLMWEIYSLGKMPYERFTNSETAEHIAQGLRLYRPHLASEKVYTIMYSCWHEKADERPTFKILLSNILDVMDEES
Chain of SRC (P12931 whole entry): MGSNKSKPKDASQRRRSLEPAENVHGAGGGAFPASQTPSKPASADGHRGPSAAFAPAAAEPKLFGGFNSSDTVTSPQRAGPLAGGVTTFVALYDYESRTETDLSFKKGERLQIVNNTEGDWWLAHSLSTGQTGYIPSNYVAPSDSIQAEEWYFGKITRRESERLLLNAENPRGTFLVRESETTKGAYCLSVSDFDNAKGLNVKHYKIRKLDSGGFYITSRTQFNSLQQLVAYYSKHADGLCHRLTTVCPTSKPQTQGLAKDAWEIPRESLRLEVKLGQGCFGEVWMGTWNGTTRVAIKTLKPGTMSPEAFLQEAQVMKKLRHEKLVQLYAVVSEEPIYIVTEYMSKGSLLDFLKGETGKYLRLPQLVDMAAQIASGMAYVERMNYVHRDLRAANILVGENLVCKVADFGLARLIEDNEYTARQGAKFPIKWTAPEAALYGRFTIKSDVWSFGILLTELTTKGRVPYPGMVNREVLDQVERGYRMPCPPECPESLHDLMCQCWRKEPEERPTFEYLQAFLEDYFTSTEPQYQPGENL

Take `C[C@@H]1[C@H](NC(=O)c2ccc(N(C)C)cc2)CCCN1c1cnc(C(N)=O)c(Nc2ccc(N3CCN(C)CC3)cc2)n1` [Example D-196, 5-[(2R,3R)-3-[4-(dimethylamino)benzamido]-2-methylpiperidin-1-yl]-3-{[4-(4-methylpiperazin-1-yl)phenyl]amino}pyrazine-2-carboxamide]: the IC50 was 10 to 100 nM in assay [1]; at most 10 nM in assay [2]; 10 to 100 nM in assay [3]; 10 to 100 nM in assay [4]; 100 to 1000 nM in assay [5].
For the compound `C[C@@H]1[C@H](NC(=O)c2ncc(C3CC3)cn2)CCCN1c1cnc(C(N)=O)c(Nc2cnn(C)c2)n1` [Example D-198, 5-[(2R,3R)-3-(5-cyclopropylpyrimidine-2-amido)-2-methylpiperidin-1-yl]-3-[(1-methyl-1H-pyrazol-4-yl)amino]pyrazine-2-carboxamide], the IC50 in assay [1] was 10 to 100 nM; in assay [2], at most 10 nM; in assay [3] it was 10 to 100 nM; in assay [4], 100 to 1000 nM; in assay [5], 1000 to 10000 nM.
For the compound `C[C@@H]1[C@H](NC(=O)c2ccc(C3CC3)cc2)CCCN1c1cnc(C(N)=O)c(Nc2cnn(C3CCN(C)CC3)c2)n1` [Example D-185, 5-[(2R,3R)-3-(4-cyclopropylbenzamido)-2-methylpiperidin-1-yl]-3-{[1-(1-methylpiperidin-4-yl)-1H-pyrazol-4-yl]amino}pyrazine-2-carboxamide], the IC50 is 10 to 100 nM in assay [1]; at most 10 nM in assay [2]; 10 to 100 nM in assay [3]; 100 to 1000 nM in assay [4]; 100 to 1000 nM in assay [5].
Regarding `C[C@@H]1[C@H](NC(=O)c2ccc(C3CC3)cc2F)CCCN1c1cnc(C(N)=O)c(Nc2ccc(N3CCN(C)C[C@@H]3C)cc2)n1` [Example D-12, 5-[(2R,3R)-3-(4-cyclopropyl-2-fluorobenzamido)-2-methylpiperidin-1-yl]-3-({4-[(2S)-2,4-dimethylpiperazin-1-yl]phenyl}amino)pyrazine-2-carboxamide], the half-inhibitory concentration (IC50) in assay [1] was 10 to 100 nM; in assay [2], at most 10 nM; in assay [3], 100 to 1000 nM; in assay [4], 100 to 1000 nM; in assay [5] it was 100 to 1000 nM.
In the case of `CN1CCN(c2ccc(Nc3nc(N4CCC[C@@H](n5ccc6cc(C7CC7)cc(F)c6c5=O)C4)cnc3C(N)=O)cc2)CC1` [Example D-174, 5-[(3R)-3-(6-cyclopropyl-8-fluoro-1-oxo-1,2-dihydroisoquinolin-2-yl)piperidin-1-yl]-3-{[4-(4-methylpiperazin-1-yl)phenyl]amino}pyrazine-2-carboxamide], the IC50 is 100 to 1000 nM in assay [1]; at most 10 nM in assay [2]; 10 to 100 nM in assay [3]; 100 to 1000 nM in assay [4]; 100 to 1000 nM in assay [5].
On to `C[C@@H]1[C@H](NC(=O)c2ccc3c(c2)OC(F)(F)O3)CCCN1c1cnc(C(N)=O)c(Nc2cnn(C)c2)n1` [Example D-216, 5-[(2R,3R)-3-(2,2-difluoro-2H-1,3-benzodioxole-5-amido)-2-methylpiperidin-1-yl]-3-[(1-methyl-1H-pyrazol-4-yl)amino]pyrazine-2-carboxamide], for which the IC50 is 100 to 1000 nM in assay [1]; at most 10 nM in assay [2]; 10 to 100 nM in assay [3]; 100 to 1000 nM in assay [4]; 1000 to 10000 nM in assay [5].
As for `CN1CCN(C(=O)c2ccc(Nc3nc(N4CCC[C@@H](n5ccc6cc(C7CC7)ccc6c5=O)C4)cnc3C(N)=O)cc2)CC1` [Example D-169, 5-[(3R)-3-(6-cyclopropyl-1-oxo-1,2-dihydroisoquinolin-2-yl)piperidin-1-yl]-3-{[4-(4-methylpiperazine-1-carbonyl)phenyl]amino}pyrazine-2-carboxamide], the IC50 in assay [1] was 100 to 1000 nM; in assay [2], at most 10 nM; in assay [3], 100 to 1000 nM; in assay [4] it was 100 to 1000 nM; in assay [5] it was 100 to 1000 nM.
As to `C[C@@H]1[C@H](NC(=O)N(C)C)CCCN1c1cnc(C(N)=O)c(Nc2ccc(N3CCN(C)CC3)cn2)n1` [Example D-180, 5-[(2R,3R)-3-[(dimethylcarbamoyl)amino]-2-methylpiperidin-1-yl]-3-{[5-(4-methylpiperazin-1-yl)pyridin-2-yl]amino}pyrazine-2-carboxamide], the IC50 in assay [1] was above 10000 nM; in assay [2], 100 to 1000 nM; in assay [3] it was above 10000 nM; in assay [4] it was above 10000 nM; in assay [5], 1000 to 10000 nM.
`CC(C)c1ccc(S(=O)(=O)N[C@@H]2CCCN(c3cnc(C(N)=O)c(Nc4cnn(C)c4)n3)[C@@H]2C)cc1` [Example D-220, 3-[(1-methyl-1H-pyrazol-4-yl)amino]-5-[(2R,3R)-2-methyl-3-[4-(propan-2-yl)benzenesulfonamido]piperidin-1-yl]pyrazine-2-carboxamide]: the concentration for half-maximal inhibition (IC50) in assay [1] was above 10000 nM; in assay [2], 1000 to 10000 nM; in assay [3] it was 1000 to 10000 nM; in assay [4], above 10000 nM; in assay [5], above 10000 nM.
With `Cn1cc(Nc2nc(N3CCC[C@@H](NC(=O)c4ccc(C5CC5)cc4)C3)nnc2C(N)=O)cn1` [Example D-195, 3-[(3R)-3-(4-cyclopropylbenzamido)piperidin-1-yl]-5-[(1-methyl-1H-pyrazol-4-yl)amino]-1,2,4-triazine-6-carboxamide], the IC50 in assay [1] is 100 to 1000 nM; in assay [2], at most 10 nM; in assay [3], 100 to 1000 nM; in assay [4], 100 to 1000 nM; in assay [5] it was above 10000 nM.
`Cn1cc(Nc2nc(N3C4CCC(NC(=O)c5ccc(C6CC6)cc5)C3CC4)cnc2C(N)=O)cn1` (single isomer, unassigned) [Example D-201, 5-[2-(4-cyclopropylbenzamido)-8-azabicyclo[3.2.1]octan-8-yl]-3-[(1-methyl-1H-pyrazol-4-yl)amino]pyrazine-2-carboxamide]: the IC50 in assay [1] was 100 to 1000 nM; in assay [2], at most 10 nM; in assay [3], 10 to 100 nM; in assay [4] it was 1000 to 10000 nM; in assay [5], 1000 to 10000 nM.
As for `Cc1nc2cc(C(=O)N[C@@H]3CCCN(c4cnc(C(N)=O)c(Nc5cnn(C)c5)n4)[C@@H]3C)ccc2o1` [Example D-238, N-[(2R,3R)-1-{5-carbamoyl-6-[(1-methyl-1H-pyrazol-4-yl)amino]pyrazin-2-yl}-2-methylpiperidin-3-yl]-2-methyl-1,3-benzoxazole-5-carboxamide], the IC50 in assay [1] is 10 to 100 nM; in assay [2] it was at most 10 nM; in assay [3] it was 10 to 100 nM; in assay [4] it was 100 to 1000 nM; in assay [5] it was 100 to 1000 nM.
Regarding `CC(C)c1ccc(C(=O)N[C@@H]2CCCN(c3cnc(C(N)=O)c(Nc4cnn(C)c4)n3)C2)cc1` [Example D-222, 3-[(1-Methyl-1H-pyrazol-4-yl)amino]-5-[(3R)-3-[4-(propan-2-yl)benzamido]piperidin-1-yl]pyrazine-2-carboxamide], the half-maximal inhibitory concentration (IC50) in assay [1] is 1000 to 10000 nM; in assay [2], at most 10 nM; in assay [3], 1000 to 10000 nM; in assay [4], above 10000 nM; in assay [5], above 10000 nM.

The term IC50 denotes the concentration that gives 50% inhibition.

Values taken from patent US20210070748A1, “INHIBITORS OF BRUTONS TYROSINE KINASE” (Pharmacyclics LLC, priority 2015, published 2021).
